Measurements published in patent US10571387B2, “Apparatus and method for determining the mechanical properties of cells” (Zellmechanik Dresden GmbH, priority 2013, dated 2020).

Test system: HL60 cells
Experiment: Real-time deformability measurement (circularity) of cells in shear flow through a microfluidic channel
Assay type: cell-based
Source text: In order to compare the deformation of cells, it is useful to introduce a single parameter to quantify the degree of deformation for each single cell. This can be done in numerous ways. • The circularity of a closed contour is defined by
[formula] where A is the area enclosed by the contour and l is the perimeter.
The circularity relates the ratio of area and perimeter to that of an ideal circle. For an ideal circle c=1. All other shapes result in values smaller than 1. […] For initially spherical cells such as the HL60 cell line the circularity is a very sensitive measure for the induced deformation. However for cells initially having other shapes the circularity may not be the ideal choice, since completely different shapes can lead to the same circularity.
The following experimental protocol is used for all measurements described in this section. For comparability all studies on HL60 cells presented in this application are carried out during the log phase of cell growth (36 h after splitting). Cells are centrifuged for 5 minutes at 800 rpm (which leads to an outward acceleration of about 100 g) using an Eppendorf 5804 R centrifuge (Eppendorf, Hamburg, Germany). […] The viscosity of the medium was measured with a falling sphere viscometer (HAAKE Kugelfallviskosimeter Typ C, Thermo Electron GmbH, Karlsruhe, Germany). […]

Structure (SMILES): C=C1[C@@H](C)[C@H]2[C@H](Cc3ccccc3)NC(=O)[C@]23[C@H](OC(C)=O)/C=C/[C@@](C)(O)C(=O)[C@@H](C)C/C=C/[C@H]3[C@@H]1O [cytochalasin D]
- circularity (peak of the histogram of circularities) (HL60 cells treated with cytochalasin D (2 mM added to a final concentration of 5 μL/ml, 10 minutes at 37° C.), flow rate 0.04 μl/s, 20×20 μm^2 channel section, real time measurement, FIG. 10A): 0.929±0.04
- deformation compared to untreated cells (HL60 cells treated with cytochalasin D, flow rate of 0.04 μl/s): deform more
